Results reported in article PMC7516017, “Organoids to Study Intestinal Nutrient Transport, Drug Uptake and Metabolism – Update to the Human Model and Expansion of Applications” (Frontiers in Bioengineering and Biotechnology, 2020).

What was measured:
Assay type in all cases: cell-based
human duodenal organoids [1] = assay: Live-cell imaging of intracellular acidification (BCECF-AM), human organoids; conditions: 40µM CCCP; for intracellular acidification: BCECF-AM 1μM, ratio F(λex490nm)/F(λex450nm), 50mM Gly-Sar, 50mM Gly-Gly, 5mM Cefadroxil, 50mM glucose, 50mM fructose as negative controls, minimum 6 experiments, representative courses
Description: 1.7. Peptide and drug transport studies
For peptide and drug transport studies, human organoids were cultivated for 7-9 days after passaging. […]
1.8. Imaging of intracellular acidification
For live-cell imaging of intracellular acidification, organoids were incubated with 1μM BCECF-AM (Life Technologies) in HEPES-saline buffer containing 0.01% pluronic F127, 375μM eserine and 2mM […]
substances used were: 50mM Gly-Sar, 50mM Gly-Gly, 5mM Cefadroxil, 40µM CCCP (Sigma), 100µM Amilorid, and 50µM S1611 (Sanofi Aventis). Image series were captured using a Leica […]
and the fluorescence ratio F(λex490nm)/ F(λex450nm) was calculated. Calculations and imaging data analyses were performed using the Leica Application Suite Advanced Fluorescence software. All imaging experiments were performed minimum 6 times and representative time courses are depicted in the manuscript. Imaging of intracellular acidification was performed as indicated in murine small intestinal Wt organoids or in human duodenal organoids.

human duodenal organoids [2] = assay: Uptake of radiolabeled fructose with inhibitors/competitor; conditions: 14C-fructose, 2.1mM D-fructose; 1mM Phloretin or Rubusoside or 2.1mM D-glucose as competitor; inhibitors added 30min prior; dissolved (broken up) organoids, 45 min 37 °C, pH 7.4; liquid scintillation; n = 5–6
Description: (§1) Subsequently, medium was changed to CCM for 5 days. […]
(§2) 1.6. Glucose and Fructose transport studies
(§3) Grenoble, France) and transferred in tubes. After repeated (2x) centrifugation (200g, 5min) and […]
indicated substrate/inhibitor for 45 min at 37 °C. Transporter ac tivities were assessed using (non- […]
(§4) from Sigma) and 1mM Rubusoside (VWR, Avantor).
(§5) Intestinal organoids – Transport & Metabolism […]
(§6) addition of fructose. Following incubation, substrate/inhibitor solutions were removed from intact […]
(§7) centrifuged (300g, 10min). For “broken up” organoids, dissociated organoids were centrifuged (300g, 3min) and washed three times with PBS. During these steps, PBS for washing contained glucose and […]
(§8) 3 ml of Bioscint® Scintillation […]
(§9) organoids was quantified using a liquid scintillation counter (PerkinElmer). Residual amounts of all […]
(§10) in dissolved organoids derived from the ileum. […]
(§11) Calculations and imaging data […]
(§12) intestinal Wt organoids or in human duodenal organoids.

[3] = test system: human organoids derived from different regions of the small intestine; assay: Uptake of radiolabeled glucose with transporter inhibitors; conditions: 14C-glucose, 5.8mM D-glucose; 1mM inhibitor added 10min prior; intact organoids in matrigel, HEPES-saline buffer pH 7.4, 30 min 37 °C; liquid scintillation; n = 5–6; Figure 2B
Description: as §1, §2, §3
Transporter ac tivities were assessed using (non- […]
as §4, §5, §6, §7, §8, §9, §10, §11, §12

Compound | intracellular acidification (human duodenal organoids [1]) | effect on fructose transport (human duodenal organoids [2]) | effect on glucose uptake [3] | intracellular pH on stimulation subsequent to Gly-Sar, Gly-Gly and cefadroxil (human duodenal organoids [1]; BCECF-AM, human duodenal organoids, Supplementary Figure 3A)
CC1=C(C(=O)O)N2C(=O)[C@@H](NC(=O)[C@H](N)c3ccc(O)cc3)[C@H]2SC1 [cefadroxil] | intracellular acidification was demonstrated |  |  | 
O=C(CO)[C@@H](O)[C@H](O)[C@H](O)CO [fructose, D-fructose] | neither glucose nor fructose (used as negative controls) led to an intracellular acidification |  |  | 
OC[C@H]1OC(O)[C@H](O)[C@@H](O)[C@@H]1O (stereo partly shown) [glucose] | neither glucose nor fructose (used as negative controls) led to an intracellular acidification | diminished |  | 
O=C(CCc1ccc(O)cc1)c1c(O)cc(O)cc1O [phloretin] |  | diminished | blunted glucose uptake, which was more pronounced | 
O=C(CCc1ccc(O)cc1)c1c(O)cc(O)cc1O[C@@H]1O[C@H](CO)[C@@H](O)[C@H](O)[C@H]1O [phloridzin] |  |  | blunted glucose uptake | 
carbonyl cyanide m-chlorophenyl hydrazine [CCCP] | intracellular acidification was demonstrated |  |  | additional decline in intracellular pH
glycyl-sarcosin [Gly-Sar] | intracellular acidification was demonstrated |  |  | 
